From patent US10730902B2, “1,1 ′-sulfanediyl-di-beta-D-galactopyranosides as inhibitors of galectins” (GALECTO BIOTECH AB, priority 2015, dated 2020)
Converted amounts (≈) assume the structure as drawn. Each block holds one molecule with its values, some of them ahead of it.

How the values were obtained:
galectins = conditions: all galectins; cited from earlier work
Solubility = format: physicochemical
galectin-1 = galectin-1 (Homo sapiens (Human), UniProt P09382); test: Fluorescence anisotropy assay, galectin-1 affinity; format: binding; conditions: read-out: Gal-1 Kd
Experimental: The affinity of Example 1-5 for galectins were determined by a fluorescence anisotropy assay where the compound was used as an inhibitor of the interaction between galectin and a fluorescein tagged saccharide probe as described Sörme, P., Kahl-Knutsson, B., Huflejt, M., Nilsson, U. J., and Leffler H. (2004) Fluorescence polarization as an analytical tool to evaluate galectin-ligand interactions. Anal. Biochem. 334: 36-47, (Sörme et al., 2004) and Monovalent interactions of Galectin-1 By Salomonsson, Emma; Larumbe, Amaia; Tejler, Johan; Tullberg, Erik; Rydberg, Hanna; Sundin, Anders; Khabut, Areej; Frejd, Torbjorn; Lobsanov, Yuri D.; Rini, James M.; et al, From Biochemistry (2010), 49(44), 9518-9532, (Salomonsson et al., 2010). […] 100 nM albumin was included as a carrier to prevent protein loss at such low concentration of galectin.

[1] = system: rabbit model of proliferative Vitreoretinopathy (PVR); test: Study of ocular fibrosis in rabbits (retinal detachment, PVR model); format: in vivo, New Zealand white rabbits; conditions: for reduction of size and number of subretinal glial scars and number of dividing cells: in HEC formulation, rabbit retinal detachment; for number of subretinal scars per mm of retina / scar length per mm of retina: seven days after retinal detachment; for number of subretinal scars per mm of retina / scar length per mm of retina / Ki67 labeled Muller cells per mm of retina: 50 μL IVT in HEC gel, GB1A 0.05 mg/mL, GB1B 1.5 mg/mL; for number of subretinal scars per mm of retina: HEC control 1.26; for scar length per mm of retina: HEC control 175; for Ki67 labeled Muller cells per mm of retina: three days after retinal detachment, HEC control 9.57
Experimental: 30 New Zealand white rabbits were housed in metal cages that conformed to standards set forth in the Animal Welfare Act and the Guide for the Care and Use of Laboratory Animals. Space recommendations for animals were in accordance with PHS policy and the AWA.
The vehicle gel formulation was 1.65% (w/v) HEC in NaCl. The vehicle formulation was prepared by adding the appropriate amount of HEC to 75% of the required volume of 0.9% NaCl. The resulting formulation was stirred for 20 to 25 minutes after which it was QS'ed (adjusted) to the final volume with 0.9% NaCl and stirred for an additional 2 to 3 hours at room temperature. The gel formulation was then filtered with a 0.2 μm cellulose filter.
The test item formulations were prepared by adding the appropriate amount of GB1A or GB1B to 75% of the required volume of 0.9% NaCl. The resulting formulation was agitated for 20 to 25 minutes after which the pH of the solution was measured and adjusted, as necessary, to 6-6.5 with 0.01M NaOH. The required amount of HEC was added to the test item solution and the formulation was agitated for 20 to 25 minutes. The formulation was then QS'ed to the final volume with NaCl and agitated for an additional 2 to 3 hours at room temperature. The final gel formulation was filtered with a 0.2 μm cellulose filter.
Retinal detachments were created by infusing a dilute solution (0.25%) of Healon into the subretinal space of the right eyes in 30 New Zealand White rabbits. Fifty (50) μL of GB1A (0.05 mg/mL), GB1B (1.5 mg/mL), or vehicle (HEC) formulations were injected intravitreally immediately after the detachment surgery in the right eyes of all animals (n=5 for each vehicle/test item at each time-point). The left eyes served as naïve controls. Euthanasia was performed by administering “Euthasol” IV via an ear vein, on animals of Groups 1 to 3, 3 days after retinal detachment (n=15) to examine the effects on proliferation, and on animals of Groups 4 to 6, 7 days after retinal detachment (n=15) to examine the effects on scaring.
Following euthanasia, the retinas were fixed in 4% paraformaldehyde for 24 hours. Three retinal regions approximately 3 mm square were sampled from within each detached retina as well as from control retinas. The retinas were embedded in agarose and vibratomed at 100 microns in thickness. Sections were immunolabeled with antibodies to intermediate filament proteins (vimentin) and proliferating cells (Ki67). A marker for immune cells (Isolectin B4) and a nuclear stain (DAPI) was also used. All 4 probes were added to the same sections (i.e. quadruple labeling).
The sections were imaged using an Olympus FV1000 confocal microscope. Digital images were acquired and used to determine 1) the number and size of subretinal glial scars 2) the number of dividing cells and their cell type e.g. of immune or glial origin 3) whether microglia are “activated” and 4) if macrophages are present. Animals were weighed pre-dose and at euthanasia. All animals gained a small amount of weight as was expected.
Following euthanasia, the eyes were enucleated, the cornea and lens removed and the eyecups fixed in 4% paraformaldehyde in PBS for 24 hours. Three retinal regions approximately 3 mm^2 were dissected from within each detached retina and embedded in agarose for sectioning as described above. Following immunolabeling, the sections were mounted on glass slides and cover-slipped. Digital images were captured from along the length of each section collected from each of the 3 retinal regions using a FV1000 confocal microscope. Quantitation of scar length and number, as well as the number of dividing cells, was performed using the digital images viewed in “BioImage” (software available as a free download from UCSB's dept. of engineering). In addition, the presence of immune cells as described in the Experimental Design was noted and tabulated for each animal.

galectin-3 = galectin-3 (Homo sapiens (Human), UniProt P17931); test: Fluorescence anisotropy assay, galectin-3 affinity; format: binding; conditions: read-out: Gal-3 Kd
Experimental: Anal. Biochem. 334: 36-47, (Sörme et al., 2004) and Monovalent interactions of Galectin-1 By Salomonsson, Emma; Larumbe, Amaia; Tejler, Johan; Tullberg, Erik; Rydberg, Hanna; Sundin, Anders; Khabut, Areej; Frejd, Torbjorn; Lobsanov, Yuri D.; Rini, James M.; et al, From Biochemistry (2010), 49(44), 9518-9532, (Salomonsson et al., 2010). […] 100 nM albumin was included as a carrier to prevent protein loss at such low concentration of galectin.

Sequence of galectin-1 (P09382 whole entry): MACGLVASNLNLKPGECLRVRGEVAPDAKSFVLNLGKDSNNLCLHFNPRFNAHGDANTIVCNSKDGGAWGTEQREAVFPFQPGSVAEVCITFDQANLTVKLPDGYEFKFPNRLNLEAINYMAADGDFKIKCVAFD
Sequence of galectin-3 (P17931 whole entry): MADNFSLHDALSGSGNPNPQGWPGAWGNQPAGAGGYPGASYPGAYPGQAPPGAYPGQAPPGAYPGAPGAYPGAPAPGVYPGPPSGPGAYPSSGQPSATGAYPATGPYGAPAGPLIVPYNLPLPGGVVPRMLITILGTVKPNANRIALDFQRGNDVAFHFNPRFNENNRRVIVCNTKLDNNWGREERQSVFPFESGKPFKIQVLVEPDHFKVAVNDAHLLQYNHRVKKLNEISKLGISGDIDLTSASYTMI

Structure (SMILES): O=C[C@H](O)[C@@H](O)[C@@H](O)[C@H](O)CO [D-galactose]
- affinity relative to lactose (galectins): 50-100 times lower

- solubility (Solubility): 8.1 mg/mL (≈ 12 mM)
Structure (SMILES): OCC1O[C@@H](SC2O[C@H](CO)C(O)C(n3cc(C4CCOCC4)nn3)[C@H]2O)C(O)[C@@H](n2cc(-c3cc(F)c(F)c(F)c3)nn2)[C@H]1O (stereo partly drawn) [Example 4, 3,3′-Dideoxy-3-[4-(tetrahydropyran-4-yl)-1H-1,2,3-triazol-1-yl]-3′-[4-(3,4,5-trifluorophenyl)-1H-1,2,3-triazol-1-yl]-1,1′-sulfanediyl-di-β-D-galactopyranoside]

- Kd (galectin-1): 0.11 µM
Structure (SMILES): OCC1O[C@@H](SC2O[C@H](CO)C(O)C(n3cc(N4CCOCC4)nn3)[C@H]2O)C(O)C(n2cc(-c3cc(F)c(F)c(F)c3)nn2)[C@H]1O (stereo partly drawn) [Example 1, 3,3′-Dideoxy-3-[4-(morpholin-4-yl)-1H-1,2,3-triazol-1-yl]-3′-[4-(3,4,5-trifluorophenyl)-1H-1,2,3-triazol-1-yl]-1,1′-sulfanediyl-di-β-D-galactopyranoside]

- solubility (Solubility): > 10 mg/mL
Structure (SMILES): CC(C)c1cn(C2C(O)[C@@H](CO)OC(S[C@@H]3OC(CO)[C@H](O)[C@H](n4cc(-c5cc(F)c(F)c(F)c5)nn4)C3O)[C@@H]2O)nn1 (stereo partly drawn) [Example 5, 3,3′-Dideoxy-3-[4-(propan-2-yl)-1H-1,2,3-triazol-1-yl]-3′-[4-(3,4,5-trifluorophenyl)-1H-1,2,3-triazol-1-yl]-1,1′-sulfanediyl-di-β-D-galactopyranoside]

- solubility (Solubility): > 10 mg/mL
Structure (SMILES): OCC1O[C@@H](SC2O[C@H](CO)C(O)C(n3cc(N4CCOCC4)nn3)[C@H]2O)C(O)[C@@H](n2cc(-c3cc(F)c(F)c(F)c3)nn2)[C@H]1O (stereo partly drawn) [Example 1, 3,3′-Dideoxy-3-[4-(morpholin-4-yl)-1H-1,2,3-triazol-1-yl]-3′-[4-(3,4,5-trifluorophenyl)-1H-1,2,3-triazol-1-yl]-1,1′-sulfanediyl-di-β-D-galactopyranoside]

Structure (SMILES): OC[C@H]1O[C@@H](S[C@@H]2O[C@H](CO)[C@H](O)[C@H](n3cc(-c4cccc(F)c4)nn3)[C@H]2O)[C@H](O)[C@@H](n2cc(-c3cccc(F)c3)nn2)[C@H]1O [GB1A, 3,3′-Dideoxy-3,3′-bis-[4-(3-fluoro-phenyl)-1H-1,2,3-triazol-1-yl]-1,1′-sulfanediyl-di-β-D-galactopyranoside]
- reduction of size and number of subretinal glial scars and number of dividing cells [1]: highly effective
- number of subretinal scars per mm of retina [1]: 0.45 scars per mm of retina
- scar length per mm of retina [1]: 25.83 microns per mm of retina
- Ki67 labeled Muller cells per mm of retina [1]: 3.01 cells per mm of retina

Structure (SMILES): OC[C@H]1O[C@@H](S[C@@H]2O[C@H](CO)[C@H](O)[C@H](n3cc(-c4ccc(F)cn4)nn3)[C@H]2O)[C@H](O)[C@@H](n2cc(-c3ccc(F)cn3)nn2)[C@H]1O [GB1B, 3,3′-Dideoxy-3,3′-bis-[4-(5-fluoro-2-pyridinyl)-1H-1,2,3-triazol-1-yl]-1,1′-sulfanediyl-di-β-D-galactopyranoside]
- reduction of size and number of subretinal glial scars and number of dividing cells [1]: highly effective
- number of subretinal scars per mm of retina [1]: 0.43 scars per mm of retina
- scar length per mm of retina [1]: 28.8 microns per mm of retina
- Ki67 labeled Muller cells per mm of retina [1]: 2.73 cells per mm of retina

- Kd (galectin-1): 0.07 µM
Structure (SMILES): CC(C)c1cn(C2C(O)[C@@H](CO)OC(S[C@@H]3OC(CO)[C@H](O)C(n4cc(-c5cc(F)c(F)c(F)c5)nn4)C3O)[C@@H]2O)nn1 (stereo partly drawn) [Example 5, 3,3′-Dideoxy-3-[4-(propan-2-yl)-1H-1,2,3-triazol-1-yl]-3′-[4-(3,4,5-trifluorophenyl)-1H-1,2,3-triazol-1-yl]-1,1′-sulfanediyl-di-β-D-galactopyranoside]

- Kd (galectin-1): 0.058 µM
Structure (SMILES): OCC1O[C@@H](SC2O[C@H](CO)C(O)C(n3cc(C4CCOCC4)nn3)[C@H]2O)C(O)C(n2cc(-c3cc(F)c(F)c(F)c3)nn2)[C@H]1O (stereo partly drawn) [Example 4, 3,3′-Dideoxy-3-[4-(tetrahydropyran-4-yl)-1H-1,2,3-triazol-1-yl]-3′-[4-(3,4,5-trifluorophenyl)-1H-1,2,3-triazol-1-yl]-1,1′-sulfanediyl-di-β-D-galactopyranoside]

- solubility (Solubility): > 10 mg/mL
Structure (SMILES): CN1CCN(c2cn(C3C(O)[C@@H](CO)OC(S[C@@H]4OC(CO)[C@H](O)[C@H](n5cc(-c6cc(F)c(F)c(F)c6)nn5)C4O)[C@@H]3O)nn2)CC1 (stereo partly drawn) [Example 2, 3,3′-Dideoxy-3-[4-(4-methylpiperazin-1-yl)-1H-1,2,3-triazol-1-yl]-3′-[4-(3,4,5-trifluorophenyl)-1H-1,2,3-triazol-1-yl]-1,1′-sulfanediyl-di-β-D-galactopyranoside]

Structure (SMILES): OC[C@H]1O[C@@H](O[C@H]2[C@H](O)[C@@H](O)C(O)O[C@@H]2CO)[C@H](O)[C@@H](O)[C@H]1O (stereo partly drawn) [lactose]
- Kd (galectins): 500 to 1000 µM

- Kd (galectin-3): 0.005 µM
- Kd (galectin-1): 0.029 µM
- solubility (Solubility): > 10 mg/mL
Structure (SMILES): OCC1O[C@@H](SC2O[C@H](CO)C(O)C(n3cc(C4CCNCC4)nn3)[C@H]2O)C(O)[C@@H](n2cc(-c3cc(F)c(F)c(F)c3)nn2)[C@H]1O (stereo partly drawn) [Example 3, 3,3′-Dideoxy-3-[4-(piperidin-4-yl)-1H-1,2,3-triazol-1-yl]-3′-[4-(3,4,5-trifluorophenyl)-1H-1,2,3-triazol-1-yl]-1,1′-sulfanediyl-di-β-D-galactopyranoside]

- Kd (galectin-1): 0.035 µM
Structure (SMILES): CN1CCN(c2cn(C3C(O)[C@@H](CO)OC(S[C@@H]4OC(CO)[C@H](O)C(n5cc(-c6cc(F)c(F)c(F)c6)nn5)C4O)[C@@H]3O)nn2)CC1 (stereo partly drawn) [Example 2, 3,3′-Dideoxy-3-[4-(4-methylpiperazin-1-yl)-1H-1,2,3-triazol-1-yl]-3′-[4-(3,4,5-trifluorophenyl)-1H-1,2,3-triazol-1-yl]-1,1′-sulfanediyl-di-β-D-galactopyranoside]
